System: fatigue mice
Assay: Weight loading swimming test of fatigue mice (Example 1)
Type: in vivo, ICR male mice
Conditions: for restoration of energy / strength in the state of fatigue: control group glucose 1 g/kg; for swimming time of fatigue mice: intragastric, daily dose in three times, swimming continued for three days, ribose 2.5 g/kg, caffeine 75 mg/kg, ribose 1250 mg/kg+caffeine 40 mg/kg
Description: The mice swim with the load twice every day, respectively in the morning and afternoon. The sum of the swimming times is recorded as the swimming time for one day. The average of the swimming times for the last two days is taken as a reference, and the mice are kept swimming every day until the day in which the swimming time is below 80% of the reference, and that is considered as fatigue. […] The respective agents are given by intragastric administration with a dosage of 0.2 ml/10 g, and the daily dose is given in three times. The mice are administrated with the agents 30 minutes before swimming in the morning and afternoon, respectively, and administrated again when the furs of the mice dry after swimming in the afternoon. The mice are continued to swim for three days under the prior condition as described in Section 1.2. After swimming, the respective agents are continually administered to the mice 3 times/day for 3 days, except those to be sampled immediately, then taken as materials. […] The swimming time for each group on day 0 is set for 1, the swimming time for each group on day 1, 2 and 3 is compared to that on day 0 respectively, and thereby the change rate (%) is obtained.

Row | SMILES | anti-fatigue effect (fatigue mice, weight loading swimming, three days) | restoration of energy / strength in the state of fatigue (fatigue mice) | swimming time of fatigue mice
1 | Cn1c(=O)c2c(ncn2C)n(C)c1=O [caffeine] | does not produce sustained anti-fatigue effect | restore some strength in a short time but increase fatigue with the extension of time | shortened with the extension of training time
2 | O=C[C@H](O)[C@H](O)[C@H](O)CO [ribose, D-ribose] |  | restore energy more quickly than the control group | increased with the extension of training time
